Measured values from patent US7238689B2, “Isoxazoline derivative and herbicide comprising the same as active ingredient” (Ihara Chemical Industry Co., Ltd., priority 2001, dated 2007).

How the values were obtained:
Type in all cases: in vivo
Design in all cases: scale not given here
[1] = test system: Echinochloa crus-galli (L.) Beauv. var. crus-galli; test: Herbicidal effect by upland foliage treatment; conditions: active ingredient 1000 g/ha, examined at 14th day from treatment
Description: (§1) A sand was filled in a plastic pot of 80 cm^2. Seeds of Echinochloa crus-galli (L.) Beauv. var. crus-galli and Setaria viridis (L.) Beauv. were sowed. Breeding was made in a greenhouse for 2 weeks. Wettable powders produced in accordance with the Formulation 1 were diluted with water and sprayed on the whole foliage of plants from above the plants using a small sprayer in an amount of 1,000 liters per 1 hectare so that the amount of each active ingredient became 1,000 g per 1 hectare. Then, breeding was made in the greenhouse, and the herbicidal effect of each wettable powder was examined at the 14th day from the treatment in accordance with the standard shown in Table 21.

[2] = test system: Setaria viridis (L.) Beauv.; test: Herbicidal effect by upland foliage treatment; conditions: active ingredient 1000 g/ha, examined at 14th day from treatment
Description: as §1

[3] = test system: Setaria viridis (L.) Beauv.; test: Herbicidal effect by upland field soil treatment; conditions: active ingredient 1000 g/ha, examined at 21st day from treatment
From the text: (§2) An upland field soil was filled in a plastic pot of 80 cm^2. Seeds of Echinochloa crus-galli (L.) Beauv. var. crusgalli and Setaria viridis (L.) Beauv. were sowed, followed by covering with the same soil. […] Then, breeding was made in a greenhouse, and the herbicidal effect of each wettable powder was examined at the 21st day from the treatment in accordance with the standard shown in Table 21.

[4] = test system: Echinochloa crus-galli (L.) Beauv. var. crusgalli; test: Herbicidal effect by upland field soil treatment; conditions: active ingredient 1000 g/ha, examined at 21st day from treatment
From the text: as §2

[5] = test system: Echinochloa oryzicola Vasing; test: Herbicidal effect by paddy field soil treatment; conditions: wettable powder, active ingredient 1000 g/ha, examined at the 21st day from the treatment
Outline: (§3)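 Seeds sown in puddled paddy soil under 3 cm of water; the next day wettable powders diluted in water were dropped onto the water surface at 1,000 g active ingredient/ha. Plants grown in a greenhouse, with herbicidal effect scored on day 21 against a rating standard.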

[6] = test system: Monochoria vaginalis (Murm. f.) Presl var. plantaginea (Roxb.) Solms-Laub.; test: Herbicidal effect by paddy field soil treatment; conditions: wettable powder, active ingredient 1000 g/ha, examined at the 21st day from the treatment
Outline: as §3

CCn1nc(Cl)c(CS(=O)(=O)C2=NOC(C)(C)C2)c1C(F)(F)F [3-0074]
herbicidal effect (index per standard of Table 21), Echinochloa curs-galli (L.) Beauv. Var. crus-galli [1]: 5 | herbicidal effect (index per standard of Table 21), Setaria viridis (L.) Beauv. [2]: 4 | herbicidal effect (index per standard of Table 21), Setaria viridis (L.) Beauv. [3]: 5 | herbicidal effect (index per standard of Table 21), Echinochloa curs-galli (L.) Beauv. Var. crus-galli [4]: 5 | Herbicidal effect index, Echinochloa oryzicola Vasing [5]: 5 | Herbicidal effect index, Monochoria vaginalis (Burm. F.) Presl var. plantaginea (Roxb.) Solms-Laub. [6]: 5

CCC(C)n1nc(C(F)(F)F)c(CS(=O)(=O)C2=NOC(C)(C)C2)c1Cl (stereo not drawn) [3-0081]
herbicidal effect (index per standard of Table 21), Echinochloa curs-galli (L.) Beauv. Var. crus-galli [1]: 4 | herbicidal effect (index per standard of Table 21), Setaria viridis (L.) Beauv. [2]: 4 | herbicidal effect (index per standard of Table 21), Setaria viridis (L.) Beauv. [3]: 5 | herbicidal effect (index per standard of Table 21), Echinochloa curs-galli (L.) Beauv. Var. crus-galli [4]: 5 | Herbicidal effect index, Echinochloa oryzicola Vasing [5]: 5 | Herbicidal effect index, Monochoria vaginalis (Burm. F.) Presl var. plantaginea (Roxb.) Solms-Laub. [6]: 5

CCC(C)n1nc(Cl)c(CS(=O)(=O)C2=NOC(C)(C)C2)c1C(F)(F)F (stereo not drawn) [3-0082]
herbicidal effect (index per standard of Table 21), Echinochloa curs-galli (L.) Beauv. Var. crus-galli [1]: 4 | herbicidal effect (index per standard of Table 21), Setaria viridis (L.) Beauv. [2]: 4 | herbicidal effect (index per standard of Table 21), Setaria viridis (L.) Beauv. [3]: 5 | herbicidal effect (index per standard of Table 21), Echinochloa curs-galli (L.) Beauv. Var. crus-galli [4]: 5 | Herbicidal effect index, Echinochloa oryzicola Vasing [5]: 5 | Herbicidal effect index, Monochoria vaginalis (Burm. F.) Presl var. plantaginea (Roxb.) Solms-Laub. [6]: 5

CC(C)Cn1nc(C(F)(F)F)c(CS(=O)(=O)C2=NOC(C)(C)C2)c1Cl [3-0083]
herbicidal effect (index per standard of Table 21), Echinochloa curs-galli (L.) Beauv. Var. crus-galli [1]: 4 | herbicidal effect (index per standard of Table 21), Setaria viridis (L.) Beauv. [2]: 4 | herbicidal effect (index per standard of Table 21), Setaria viridis (L.) Beauv. [3]: 5 | herbicidal effect (index per standard of Table 21), Echinochloa curs-galli (L.) Beauv. Var. crus-galli [4]: 5 | Herbicidal effect index, Echinochloa oryzicola Vasing [5]: 5 | Herbicidal effect index, Monochoria vaginalis (Burm. F.) Presl var. plantaginea (Roxb.) Solms-Laub. [6]: 5

CC(C)Cn1nc(Cl)c(CS(=O)(=O)C2=NOC(C)(C)C2)c1C(F)(F)F [3-0084]
herbicidal effect (index per standard of Table 21), Echinochloa curs-galli (L.) Beauv. Var. crus-galli [1]: 4 | herbicidal effect (index per standard of Table 21), Setaria viridis (L.) Beauv. [2]: 4 | herbicidal effect (index per standard of Table 21), Setaria viridis (L.) Beauv. [3]: 5 | herbicidal effect (index per standard of Table 21), Echinochloa curs-galli (L.) Beauv. Var. crus-galli [4]: 5 | Herbicidal effect index, Echinochloa oryzicola Vasing [5]: 5 | Herbicidal effect index, Monochoria vaginalis (Burm. F.) Presl var. plantaginea (Roxb.) Solms-Laub. [6]: 5

CCCCn1nc(C(F)(F)F)c(CS(=O)(=O)C2=NOC(C)(C)C2)c1Cl [3-0085]
herbicidal effect (index per standard of Table 21), Echinochloa curs-galli (L.) Beauv. Var. crus-galli [1]: 4 | herbicidal effect (index per standard of Table 21), Setaria viridis (L.) Beauv. [2]: 4 | herbicidal effect (index per standard of Table 21), Setaria viridis (L.) Beauv. [3]: 5 | herbicidal effect (index per standard of Table 21), Echinochloa curs-galli (L.) Beauv. Var. crus-galli [4]: 5 | Herbicidal effect index, Echinochloa oryzicola Vasing [5]: 5 | Herbicidal effect index, Monochoria vaginalis (Burm. F.) Presl var. plantaginea (Roxb.) Solms-Laub. [6]: 5

CCCCn1nc(Cl)c(CS(=O)(=O)C2=NOC(C)(C)C2)c1C(F)(F)F [3-0086]
herbicidal effect (index per standard of Table 21), Echinochloa curs-galli (L.) Beauv. Var. crus-galli [1]: 4 | herbicidal effect (index per standard of Table 21), Setaria viridis (L.) Beauv. [2]: 4 | herbicidal effect (index per standard of Table 21), Setaria viridis (L.) Beauv. [3]: 5 | herbicidal effect (index per standard of Table 21), Echinochloa curs-galli (L.) Beauv. Var. crus-galli [4]: 5 | Herbicidal effect index, Echinochloa oryzicola Vasing [5]: 5 | Herbicidal effect index, Monochoria vaginalis (Burm. F.) Presl var. plantaginea (Roxb.) Solms-Laub. [6]: 5

CC1(C)CC(S(=O)(=O)Cc2c(Cl)nn(CC(F)F)c2C(F)(F)F)=NO1 [3-0115]
herbicidal effect (index per standard of Table 21), Echinochloa curs-galli (L.) Beauv. Var. crus-galli [1]: 5 | herbicidal effect (index per standard of Table 21), Setaria viridis (L.) Beauv. [2]: 4 | herbicidal effect (index per standard of Table 21), Setaria viridis (L.) Beauv. [3]: 5 | herbicidal effect (index per standard of Table 21), Echinochloa curs-galli (L.) Beauv. Var. crus-galli [4]: 5 | Herbicidal effect index, Echinochloa oryzicola Vasing [5]: 5 | Herbicidal effect index, Monochoria vaginalis (Burm. F.) Presl var. plantaginea (Roxb.) Solms-Laub. [6]: 5

COCn1nc(C(F)(F)F)c(CS(=O)(=O)C2=NOC(C)(C)C2)c1Cl [3-0118]
herbicidal effect (index per standard of Table 21), Echinochloa curs-galli (L.) Beauv. Var. crus-galli [1]: 5 | herbicidal effect (index per standard of Table 21), Setaria viridis (L.) Beauv. [2]: 4 | herbicidal effect (index per standard of Table 21), Setaria viridis (L.) Beauv. [3]: 5 | herbicidal effect (index per standard of Table 21), Echinochloa curs-galli (L.) Beauv. Var. crus-galli [4]: 5 | Herbicidal effect index, Echinochloa oryzicola Vasing [5]: 5 | Herbicidal effect index, Monochoria vaginalis (Burm. F.) Presl var. plantaginea (Roxb.) Solms-Laub. [6]: 5

COCn1nc(Cl)c(CS(=O)(=O)C2=NOC(C)(C)C2)c1C(F)(F)F [3-0119]
herbicidal effect (index per standard of Table 21), Echinochloa curs-galli (L.) Beauv. Var. crus-galli [1]: 5 | herbicidal effect (index per standard of Table 21), Setaria viridis (L.) Beauv. [2]: 4 | herbicidal effect (index per standard of Table 21), Setaria viridis (L.) Beauv. [3]: 5 | herbicidal effect (index per standard of Table 21), Echinochloa curs-galli (L.) Beauv. Var. crus-galli [4]: 5 | Herbicidal effect index, Echinochloa oryzicola Vasing [5]: 5 | Herbicidal effect index, Monochoria vaginalis (Burm. F.) Presl var. plantaginea (Roxb.) Solms-Laub. [6]: 5

CCOCn1nc(C(F)(F)F)c(CS(=O)(=O)C2=NOC(C)(C)C2)c1Cl [3-0120]
herbicidal effect (index per standard of Table 21), Echinochloa curs-galli (L.) Beauv. Var. crus-galli [1]: 5 | herbicidal effect (index per standard of Table 21), Setaria viridis (L.) Beauv. [2]: 5 | herbicidal effect (index per standard of Table 21), Setaria viridis (L.) Beauv. [3]: 5 | herbicidal effect (index per standard of Table 21), Echinochloa curs-galli (L.) Beauv. Var. crus-galli [4]: 5 | Herbicidal effect index, Echinochloa oryzicola Vasing [5]: 5 | Herbicidal effect index, Monochoria vaginalis (Burm. F.) Presl var. plantaginea (Roxb.) Solms-Laub. [6]: 5

CC(=O)CCn1nc(C(F)(F)F)c(CS(=O)(=O)C2=NOC(C)(C)C2)c1Cl [3-0144]
herbicidal effect (index per standard of Table 21), Echinochloa curs-galli (L.) Beauv. Var. crus-galli [1]: 5 | herbicidal effect (index per standard of Table 21), Setaria viridis (L.) Beauv. [2]: 5 | herbicidal effect (index per standard of Table 21), Setaria viridis (L.) Beauv. [3]: 5 | herbicidal effect (index per standard of Table 21), Echinochloa curs-galli (L.) Beauv. Var. crus-galli [4]: 5 | Herbicidal effect index, Echinochloa oryzicola Vasing [5]: 5 | Herbicidal effect index, Monochoria vaginalis (Burm. F.) Presl var. plantaginea (Roxb.) Solms-Laub. [6]: 5

Cc1nsc(Cl)c1CS(=O)(=O)C1=NOC(C)(C)C1 [4-0002, [(5-chloro-3-methyl-isothiazol-4-yl)-methylsulfonyl]-5,5-dimethyl-2-isoxazoline]
herbicidal effect (index per standard of Table 21), Echinochloa curs-galli (L.) Beauv. Var. crus-galli [1]: 5 | herbicidal effect (index per standard of Table 21), Setaria viridis (L.) Beauv. [2]: 4 | herbicidal effect (index per standard of Table 21), Setaria viridis (L.) Beauv. [3]: 5 | herbicidal effect (index per standard of Table 21), Echinochloa curs-galli (L.) Beauv. Var. crus-galli [4]: 5 | Herbicidal effect index, Echinochloa oryzicola Vasing [5]: 5 | Herbicidal effect index, Monochoria vaginalis (Burm. F.) Presl var. plantaginea (Roxb.) Solms-Laub. [6]: 5

Cc1noc(C)c1CS(=O)(=O)C1=NOC(C)(C)C1 [4-0005]
herbicidal effect (index per standard of Table 21), Echinochloa curs-galli (L.) Beauv. Var. crus-galli [1]: 5 | herbicidal effect (index per standard of Table 21), Setaria viridis (L.) Beauv. [2]: 4 | herbicidal effect (index per standard of Table 21), Setaria viridis (L.) Beauv. [3]: 5 | herbicidal effect (index per standard of Table 21), Echinochloa curs-galli (L.) Beauv. Var. crus-galli [4]: 5 | Herbicidal effect index, Echinochloa oryzicola Vasing [5]: 5 | Herbicidal effect index, Monochoria vaginalis (Burm. F.) Presl var. plantaginea (Roxb.) Solms-Laub. [6]: 5

Cc1nn(C)c(CS(=O)(=O)C2=NOC(C)(C)C2)c1Cl [5-0001]
herbicidal effect (index per standard of Table 21), Echinochloa curs-galli (L.) Beauv. Var. crus-galli [1]: 5 | herbicidal effect (index per standard of Table 21), Setaria viridis (L.) Beauv. [2]: 4 | herbicidal effect (index per standard of Table 21), Setaria viridis (L.) Beauv. [3]: 5 | herbicidal effect (index per standard of Table 21), Echinochloa curs-galli (L.) Beauv. Var. crus-galli [4]: 5 | Herbicidal effect index, Echinochloa oryzicola Vasing [5]: 5 | Herbicidal effect index, Monochoria vaginalis (Burm. F.) Presl var. plantaginea (Roxb.) Solms-Laub. [6]: 5

CCc1nn(C)c(CS(=O)(=O)C2=NOC(C)(C)C2)c1Cl [5-0002]
herbicidal effect (index per standard of Table 21), Echinochloa curs-galli (L.) Beauv. Var. crus-galli [1]: 5 | herbicidal effect (index per standard of Table 21), Setaria viridis (L.) Beauv. [2]: 5 | herbicidal effect (index per standard of Table 21), Setaria viridis (L.) Beauv. [3]: 5 | herbicidal effect (index per standard of Table 21), Echinochloa curs-galli (L.) Beauv. Var. crus-galli [4]: 5 | Herbicidal effect index, Echinochloa oryzicola Vasing [5]: 5 | Herbicidal effect index, Monochoria vaginalis (Burm. F.) Presl var. plantaginea (Roxb.) Solms-Laub. [6]: 5
